Read-outs that look alike come from different tables or passages of the source.
Columns and labels:
[1] = Toxicity testing: cell viability, Alamar Blue HS; conditions: human, MRC-5 cells (uninfected)
[2] = system: recombinant Nipah virus expressing ZsGreen fluorescence protein (rNiV-ZsG); conditions: human
[3] = system: recombinant Nipah virus expressing ZsGreen fluorescence protein (rNiV-ZsG); test: microbe, parasite or virus in culture; conditions: Henipavirus nipahense, MRC5, 72 h, read-out: MRC-5 EC50
MRC-5 cells = test: Toxicity testing: cell viability, Alamar Blue HS; conditions: read-out: MRC-5 CC50; uninfected MRC-5 cells, 72 hours post-compound treatment

COc1c(CNC(=O)c2cc(C3CC3)nn2C)cccc1OCc1ccc(CN2CCN(S(=O)(=O)CC(C)C)CC2)cc1 [Compound 19]
CC50 at 72 h [1]: > 5 µM
EC50 [2]: 0.0146 µM

COc1c(CNC(=O)c2cc(C3CC3)nn2C)cccc1OCc1ccc(S(=O)(=O)N2CCN(C)CC2)cc1 [Compound 92]
CC50 at 72 h [1]: > 5 µM
EC50 [3]: 16.7 µM

COc1c(CNC(=O)c2cc(C3CC3)nn2C)cccc1Oc1ccc(C(=O)N2CCN(S(C)(=O)=O)CC2)nn1 [Compound 133]
CC50 at 72 h [1]: > 5 µM
EC50 [3]: 6.32 µM

Cc1c(CNCc2cc(C3CC3)nn2C)cccc1OCc1ccc(C(=O)N2CCN(S(C)(=O)=O)CC2)cc1 [Compound 127]
CC50 at 72 h [1]: > 5 µM
EC50 [3]: 20 µM

CC(=O)N1CCN(Cc2ccc(COc3cccc(CNC(=O)c4cc(C5CC5)nn4C)c3F)cc2)CC1 [Compound 13]
CC50 at 72 h [1]: > 5 µM
EC50 [3]: 0.628 µM

COc1c(CNC(=O)c2cc(C3CC3)nn2C)cccc1OCc1ccc(C(=O)N2CCN(S(C)(=O)=O)CC2)cc1 [Compound 9]
CC50 at 72 h [1]: > 5 µM
EC50 [3]: 0.508 µM

COc1c(CNC(=O)c2cc(C3CC3)nn2C)cccc1OCc1ccc(CN2CCCC2)cc1 [Compound 18]
CC50 at 72 h [1]: > 5 µM
EC50 [3]: 0.124 µM

COc1c(CNC(=O)c2cc(C3CC3)nn2C)cccc1N1CCN(S(C)(=O)=O)CC1 [Compound 118]
CC50 at 72 h [1]: > 5 µM
EC50 [3]: 3.85 µM

COc1c(CNC(=O)c2cc(C3CC3)nn2C)cccc1OCc1cccc(CN2CCN(C(C)=O)CC2)c1 [Compound 88]
CC50 at 72 h [1]: > 5 µM
EC50 [3]: 0.144 µM

COc1c(CNC(=O)c2cc(C3CC3)nn2C)cccc1OCc1ccc(C(=O)N2CCC(N(C)S(C)(=O)=O)CC2)cc1 [Compound 96]
CC50 at 72 h [1]: > 5 µM
EC50 [3]: 16.1 µM

COc1c(CNC(=O)c2cc(C3CC3)nn2C)cccc1OCc1ccc(C(=O)NC2CCN(S(C)(=O)=O)CC2)cc1 [Compound 94]
CC50 at 72 h [1]: > 5 µM
EC50 [3]: 1.05 µM

COc1c(CNC(=O)c2cc(C3CC3)nn2C)cccc1OCc1ccc(COC(=O)N2CCN(S(=O)(=O)CC(C)C)CC2)cc1 [Compound 173]
CC50 at 72 h [1]: > 5 µM
EC50 [3]: 0.0239 µM

COc1c(CNC(=O)c2cc(C3CC3)nn2C)cccc1OCc1ccc(OC(=O)N2CCN(S(C)(=O)=O)CC2)cc1 [Compound 128]
CC50 at 72 h [1]: > 5 µM

COc1c(CNC(=O)c2cc(C3CC3)nn2C)cccc1OCc1ccc(C(=O)N2CCN(S(=O)(=O)CC(C)C)CC2C)cc1 (stereo not shown) [Compound 8]
CC50 at 72 h [1]: > 5 µM
EC50 [3]: 0.194 µM

COc1c(CNC(=O)c2cc(C3CC3)nn2C)cccc1OCc1ccc(COC(=O)N2CCN(C(C)=O)CC2)cc1 [Compound 174]
CC50 at 72 h [1]: > 5 µM
EC50 [3]: 0.129 µM

CN1CCN(Cc2ccc(COc3ccc(CNC(=O)c4cc(C5CC5)nn4C)cc3Cl)cc2)CC1 [Compound 175]
CC50 at 72 h [1]: > 5 µM
EC50 [3]: 0.2 µM

COc1c(CNC(=O)c2cc(C3CC3)nn2C)cccc1N(C)Cc1ccc(C(=O)N2CCN(S(C)(=O)=O)CC2)cc1 [Compound 113]
CC50 at 72 h [1]: > 5 µM
EC50 [3]: 1.5 µM

Cn1nc(C2CC2)cc1C(=O)NCc1ccc(OCc2ccc(C(=O)N3CCN(S(C)(=O)=O)CC3)cc2)c(OC(F)(F)F)c1 [Compound 80]
CC50 at 72 h [1]: > 5 µM
EC50 [3]: 1.44 µM

COc1c(CNC(=O)c2cc(C3CC3)nn2C)cccc1OCc1ccc(CN2CCN(C)CC2)cc1 [Compound 23]
CC50 at 72 h [1]: > 5 µM
EC50 [3]: 0.324 µM

COc1c(CNC(=O)c2cc(C3CC3)nn2C)cccc1OCc1ccc(CN2CCN(S(=O)(=O)CC(C)C)CC2)cc1 [Compound 17]
CC50 (MRC-5 cells): > 5 µM
EC50 [2]: 0.0297 µM

COc1c(CNC(=O)c2cc(C3CC3)nn2C)cccc1OCc1ccc(S(=O)(=O)N2CCN(S(C)(=O)=O)CC2)cc1 [Compound 91]
CC50 at 72 h [1]: > 5 µM
EC50 [3]: 1.67 µM

Cn1nc(C2CC2)cc1C(=O)NCc1cccc(OCc2ccc(C(=O)N3CCN(S(C)(=O)=O)CC3)cc2)c1Cl [Compound 63]
CC50 at 72 h [1]: > 5 µM
EC50 [3]: 6.82 µM

Source: patent US12017997B2, “Host-targeted pan-respiratory antiviral small molecule therapeutics” (priority 2021, dated 2024)
